Assay results: patent publication US20240059693A1, “FUSED BICYCLIC PYRAZOLE DERIVATIVES AND METHODS OF USE THEREOF FOR THE TREATMENT OF HERPESVIRUSES” (Merck Sharp & Dohme LLC, priority 2020, published 2024)
Like-named read-outs stand apart in the source and are kept apart here.

Assays:
[1] = target: T1, Human cytomegalovirus DNA polymerase (Human cytomegalovirus, UniProt P08546); assay: HCMV polymerase assay (AlphaLISA); format: biochemical; settings: HCMV DNA polymerase 0.2 nM, 60 minutes at 37° C.; read-out: CMV (IC50)
T1 construct: made in house; host or cells: SF21 insect cells (baculovirus vector)
Outline: (§1)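 Baculovirus/SF21-expressed polymerase (HCMV 0.2 nM; VZV 0.4 nM) pre-incubated 30 min at room temperature with compound in HEPES pH 7.5 buffer, then 60 min at 37 °C with 1.6 nM DIG-primer/template, sub-nM to 24 nM dNTPs and 0.8 nM biotin-dUTP. AlphaLISA detection; IC50 from 4-parameter fit.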

[2] = target: T2, varicella zoster virus DNA polymerase (Varicella-zoster virus, UniProt P09252); assay: VZV polymerase assay (AlphaLISA); format: biochemical; settings: VZV DNA polymerase 0.4 nM, 60 minutes at 37° C.
T2 construct: made in house; host or cells: SF21 insect cells (baculovirus vector)
Outline: as §1

HCMV Strain AD169 = assay: Viral qPCR assay, HCMV in MRC-5 cells; format: cell-based, Human cytomegalovirus; settings: read-out: CMV MRC5 Cell (EC50)
Outline: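 MRC-5 cells infected in suspension with HCMV AD169 (0.05-0.1 pfu/cell) and added to 10-point 3-fold compound dilutions, in growth media or media with 50% FBS. After ~72 h at 37 °C, lysates analysed by TaqMan qPCR against a plasmid standard curve, viral copies normalised to PPIA or not. EC50 from 4-parameter fit.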

VZV [3] = assay: Viral qPCR assay, VZV in MeWo cells; format: cell-based, varicella zoster virus; settings: read-out: VZV MEWO Cell (IC50)
Experimental: (§2) MRCS cells, Vero cells, and MeWo cells were obtained from ATCC and were maintained at 37° C./5% CO2/90% relative humidity in Minimal Essential Medium with 10% fetal bovine serum, […] L-glutamine, 100 units/ml penicillin and 100 ug/ml streptomycin. Assay plates were prepared by dispensing compounds dissolved in DMSO into wells of 384 well collagen-coated plates using an ECHO acoustic dispenser. Each compound was tested in a 10-point, serial 3-fold dilution. Controls included uninfected cells and infected cells treated only with DMSO. Assays were initiated by mixing selected cells, in suspension, with virus, and dispensing 50 μl/well infected cells to pre-plated compounds. Plates were incubated at 37° C./5% CO2/90% relative humidity for ˜72 hrs to permit genomic replication, and infected cells were lysed by the addition of an equal volume of lysis buffer (10 mM Tris-HCl, pH8, 50 mM KCl, 2 mM MgCl2, 0.45% NP-40, 0.45% Tween-20, and 100 μg/ml proteinase K). An aliquot of the lysate was transferred to a 384-well PCR plate and incubated at 56° C. for 1 hour and then at 95° C. for 10 min. Levels of a viral gene and of the cellular control, PPIA (Thermo Fisher Assay ID=Hs04194521_s1), were measured in separate 10 μL qPCR assays using TaqMan® Gene Expression Master Mix (Applied Biosystems), and an 7900HT Fast Real-Time PCR System with 384-Well Block Module. 7-point, serial 10-fold dilutions of a plasmid standard were run on each plate to generate a standard curve, and genome copies numbers were calculated by plotting experimental Ct onto linear regression of the standard curve. Viral genome copy numbers were normalized by cellular control copy number, and compound effects were normalized to the window defined by the controls. Calculated % effects were fit using a 4-parameter algorithm, and EC50 was reported.
as §2, with “gene” for “gene and of the cellular control, PPIA (Thermo Fisher Assay ID=Hs04194521_s1),”, “in” for “in separate”, “Compound effects on viral” for “Viral”, “number” for “numbers were normalized by cellular control copy number, and compound effects”
VZV: Strain Street was maintained as an infected cell stock in MRC-5 cells. It was assayed in MeWo or MRCS cells and was used at 0.04-0.1 pfu/cell. The assays were performed in growth medium. Primer-probe set was Thermo Fisher Assay ID=AIPAEXQ. HSV-1: Strain F Street was assayed in Vero or MRCS cells and was used at 0.0005-0.004 pfu/cell in growth medium. Primer-probe set was Thermo Fisher Assay ID=AIBJZIB

VZV [4] = assay: Viral qPCR assay, VZV in MRC5 cells; format: cell-based, varicella zoster virus; settings: read-out: VZV MRC5 Cell (IC50)
Outline: (§3)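 MRC5, MeWo (VZV Street strain, 0.04-0.1 pfu/cell) or Vero/MRC5 (HSV-1 Strain F, 0.0005-0.004 pfu/cell) cells infected in suspension and added to 10-point 3-fold compound dilutions; ~72 h at 37 °C. Lysates qPCR-quantified for viral genome copies against plasmid standard curve, in one format normalized to cellular PPIA; 4-parameter fit gives EC50.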

HSV-1 Strain F [5] = assay: Viral qPCR assay, HSV-1 in Vero cells; format: cell-based, Herpes Simplex Virus type 1; settings: read-out: HSV1 VERO Cell (EC50)
Outline: as §3

HSV-1 Strain F [6] = assay: Viral qPCR assay, HSV-1 in MRC5 cells; format: cell-based, Herpes Simplex Virus type 1; settings: read-out: HSV1 MRC5 Cell (EC50)
Outline: as §3

HSV2 [7] = assay: Viral qPCR assay, HSV2 in Vero cells; format: cell-based, Herpes Simplex Virus type 2; settings: read-out: HSV2 VERO Cell (EC50)
Outline: (§4)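 Vero or MRC5 cells infected in suspension with HSV2 and added to a 10-point 3-fold compound dilution, then ~72 h at 37 °C. Lysates assayed by TaqMan qPCR against a plasmid standard curve; copies normalized to controls (with PPIA in one format) and EC50 from 4-parameter fit.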

HSV2 [8] = assay: Viral qPCR assay, HSV2 in MRC5 cells; format: cell-based, Herpes Simplex Virus type 2; settings: read-out: HSV2 MRC5 Cell (EC50)
Outline: as §4

[9] = Human betaherpesvirus 5, AD169, MRC5, 72 h
[10] = Human alphaherpesvirus 3, ~72 hrs
[11] = Human alphaherpesvirus 3, MRC5, 72 h
[12] = Human alphaherpesvirus 1, Vero, 72 h
[13] = Human alphaherpesvirus 1, MRC5, 72 h
[14] = Human alphaherpesvirus 2, Vero, 72 h
[15] = Human alphaherpesvirus 2, MRC5, 72 h

T1 sequence (P08546 whole entry): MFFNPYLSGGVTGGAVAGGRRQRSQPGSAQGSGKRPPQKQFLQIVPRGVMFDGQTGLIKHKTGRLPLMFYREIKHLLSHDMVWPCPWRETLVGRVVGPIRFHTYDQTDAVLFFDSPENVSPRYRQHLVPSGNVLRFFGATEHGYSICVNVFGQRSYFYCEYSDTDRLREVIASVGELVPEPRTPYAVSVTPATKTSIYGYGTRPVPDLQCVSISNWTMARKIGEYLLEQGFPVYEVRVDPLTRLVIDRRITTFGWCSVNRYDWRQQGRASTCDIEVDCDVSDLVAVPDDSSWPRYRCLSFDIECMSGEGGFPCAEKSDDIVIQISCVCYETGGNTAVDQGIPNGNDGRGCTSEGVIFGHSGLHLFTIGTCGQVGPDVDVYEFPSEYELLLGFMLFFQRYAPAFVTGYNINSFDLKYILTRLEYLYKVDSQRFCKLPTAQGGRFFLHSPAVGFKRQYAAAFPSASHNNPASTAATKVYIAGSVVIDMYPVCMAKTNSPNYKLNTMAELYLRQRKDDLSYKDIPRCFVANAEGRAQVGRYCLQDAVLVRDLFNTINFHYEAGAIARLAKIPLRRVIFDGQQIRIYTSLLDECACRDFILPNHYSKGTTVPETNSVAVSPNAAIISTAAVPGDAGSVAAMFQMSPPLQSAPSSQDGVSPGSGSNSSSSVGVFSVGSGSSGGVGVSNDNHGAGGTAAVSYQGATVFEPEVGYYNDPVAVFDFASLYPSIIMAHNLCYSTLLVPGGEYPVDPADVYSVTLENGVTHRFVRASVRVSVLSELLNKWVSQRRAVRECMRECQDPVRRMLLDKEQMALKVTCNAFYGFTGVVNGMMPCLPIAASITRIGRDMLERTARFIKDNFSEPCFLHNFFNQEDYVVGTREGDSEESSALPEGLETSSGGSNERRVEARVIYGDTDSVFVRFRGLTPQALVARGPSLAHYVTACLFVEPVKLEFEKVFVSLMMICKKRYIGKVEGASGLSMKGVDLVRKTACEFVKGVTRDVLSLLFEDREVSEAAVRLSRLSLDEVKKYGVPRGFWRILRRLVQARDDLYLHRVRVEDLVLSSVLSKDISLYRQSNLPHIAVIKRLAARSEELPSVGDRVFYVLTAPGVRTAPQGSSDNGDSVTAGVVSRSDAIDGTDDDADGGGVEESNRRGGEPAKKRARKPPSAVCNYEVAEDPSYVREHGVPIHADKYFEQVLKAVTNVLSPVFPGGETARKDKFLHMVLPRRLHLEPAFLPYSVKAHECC
T2 sequence (P09252 whole entry): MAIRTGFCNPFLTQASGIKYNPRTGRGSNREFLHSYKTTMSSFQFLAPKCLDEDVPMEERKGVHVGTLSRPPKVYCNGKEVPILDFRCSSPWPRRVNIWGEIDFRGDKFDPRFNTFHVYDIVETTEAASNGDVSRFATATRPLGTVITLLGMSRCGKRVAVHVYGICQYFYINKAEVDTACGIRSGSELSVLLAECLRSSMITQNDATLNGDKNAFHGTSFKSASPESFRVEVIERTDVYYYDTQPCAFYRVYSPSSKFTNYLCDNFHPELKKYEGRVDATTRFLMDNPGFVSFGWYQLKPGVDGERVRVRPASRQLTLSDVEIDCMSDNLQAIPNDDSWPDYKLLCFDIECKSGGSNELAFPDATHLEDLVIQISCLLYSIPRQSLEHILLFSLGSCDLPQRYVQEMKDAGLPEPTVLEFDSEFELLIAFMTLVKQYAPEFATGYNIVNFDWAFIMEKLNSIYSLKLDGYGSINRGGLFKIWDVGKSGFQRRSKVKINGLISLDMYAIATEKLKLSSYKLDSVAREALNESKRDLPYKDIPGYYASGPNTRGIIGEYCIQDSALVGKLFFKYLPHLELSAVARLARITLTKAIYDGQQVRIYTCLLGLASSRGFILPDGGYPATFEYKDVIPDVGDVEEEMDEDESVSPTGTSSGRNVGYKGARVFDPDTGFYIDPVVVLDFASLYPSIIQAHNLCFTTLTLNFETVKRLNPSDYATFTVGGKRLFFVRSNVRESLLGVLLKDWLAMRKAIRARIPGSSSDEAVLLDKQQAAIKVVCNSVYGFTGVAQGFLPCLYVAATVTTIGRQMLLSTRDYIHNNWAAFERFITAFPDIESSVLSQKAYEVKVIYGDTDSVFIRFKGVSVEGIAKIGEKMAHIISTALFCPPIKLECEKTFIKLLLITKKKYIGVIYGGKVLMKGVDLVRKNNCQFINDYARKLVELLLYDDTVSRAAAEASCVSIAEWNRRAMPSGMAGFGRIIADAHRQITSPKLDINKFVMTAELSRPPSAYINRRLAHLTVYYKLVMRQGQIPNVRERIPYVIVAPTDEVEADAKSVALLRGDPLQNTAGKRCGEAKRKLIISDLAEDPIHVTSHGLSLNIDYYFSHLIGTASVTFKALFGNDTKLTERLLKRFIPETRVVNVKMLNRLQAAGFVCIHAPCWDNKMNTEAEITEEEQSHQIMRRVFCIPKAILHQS

Row | Compound | IC50 [1] | IC50 [2] | EC50 (HCMV Strain AD169; MRC5 cells, ~72 hrs) | IC50 (VZV [3]; ~72 hrs) | IC50 (VZV [4]; ~72 hrs) | EC50 (HSV-1 Strain F [5]; ~72 hrs) | EC50 (HSV-1 Strain F [6]; ~72 hrs) | EC50 (HSV2 [7]; ~72 hrs) | EC50 (HSV2 [8]; ~72 hrs) | EC50 (HCMV Strain AD169; [9]) | IC50 (VZV [3]; [10]) | IC50 (VZV [4]; [11]) | EC50 (HSV-1 Strain F [5]; [12]) | EC50 (HSV-1 Strain F [6]; [13]) | EC50 (HSV2 [7]; [14]) | EC50 (HSV2 [8]; [15])
1 | Cn1nc(C(=O)NCc2ccc(Cl)cc2)c2c1CC(C[C@@H]1CCC(=O)N1)C2 (single isomer, unassigned) [Compound 127] | 48.9 nM | 9.72 nM | 599 nM | 130 nM | 407 nM | 240 nM | 694 nM | 364 nM | 278 nM | – | – | – | – | – | – | –
2 | O=C1CC[C@H](CN2Cc3c(C(=O)NCc4ccc(Cl)cc4)nn(CCn4ccc(Cl)n4)c3C2)N1 [Compound 36] | 8.94 nM | 5.85 nM | – | – | – | – | – | – | – | 453 nM | 102 nM | 856 nM | 1190 nM | 1270 nM | 2840 nM | 960 nM
3 | Cn1nc(C(=O)NCc2ccc(Cl)c(F)c2)c2c1CN(C[C@H]1CCC(=O)N1)C2 [Compound 60] | 143 nM | 112 nM | – | – | – | – | – | – | – | 970 nM | 1470 nM | 5960 nM | 2850 nM | 8350 nM | 5460 nM | 5570 nM
4 | Cn1nc(C(=O)NCc2ccc(Cl)cc2)c2c1CC(C[C@H]1CCC(=O)N1)C2 (single isomer, unassigned) [Compound 129] | 74.2 nM | 9.1 nM | 1570 nM | 154 nM | 371 nM | 264 nM | 1020 nM | 422 nM | 384 nM | – | – | – | – | – | – | –
